We go through one molecule from paper PMC4264242, “Androgen Receptor Antagonists and Anti-Prostate Cancer Activities of Some Newly Synthesized Substituted Fused Pyrazolo-, Triazolo- and Thiazolo-Pyrimidine Derivatives” (International Journal of Molecular Sciences, 2014).

This assay relates to castrated immature rats. Nature of the assay: In vivo anti-androgenic activity in castrated immature rats treated with testosterone propionate. Also noted: species or system rat. An excerpt:
[…] male Wistar rats were obtained from the Animal House Colony, Research Institute of Ophthalmology, Giza, Egypt. Prepubertal male rats aged 3 weeks were castrated using the scrotal route under ether anesthesia.

Turning to `CC(O)(CS(=O)(=O)c1ccc(F)cc1)C(=O)Nc1ccc(C#N)c(C(F)(F)F)c1` (centres unmarked) [Bicalutamide, reference compound], under “Rattus norvegicus, castrated immature rats, TP 0.5 mg/kg s.c., compound p.o., read-out: ED50, in vivo anti-androgen activity”, the ED50 is 1.6 mg/kg. In addition, the “% (Inhibition), in vivo anti-androgen activity” value (inhibition of TP effect (TP 0.5 mg/kg s.c. once daily for 5 days), tested compound 10-30 mg/kg p.o.) came to 75%.
